“And” between values parts separate entries of the source, which are not always exact repeats. Identical values can stand only once.
How the values were obtained:
[1] = test system: recombinant TEAD1 protein (194-411, Uniprot ID: P28347); assay: Thermal shift assay (protein melting point curve), TEAD1; assay type: binding; parameters: key to the marks not given beside the values; conditions: 10 μM TEAD protein, 50 μM test compound
Experimental: (§1) The ability of the compounds to increase the melting point of purified recombinant TEAD1/2/3/4 proteins is tested using a thermal shift assay. The strength of the compound's binding to the protein and the selectivity of the compound's binding to the four TEAD subtypes are evaluated by calculating the melting point shift ΔTm−° C. […] Based on the Δ Tm value, the ability of the compound to bind to the TEAD protein is divided into four levels: ++++, +++, ++, +.
(§2) Test method of protein melting point curve: 10 μL of the protein melting point curve experimental system (10 μM TEAD protein, 50 μM test compound, SYPRO® orange (55692, sigma)) is prepared in a 384-well fluorescence quantitative PCR plate according to the following system, and reacted at 4° C. in the dark for 20 minutes. On-machine reaction: ABI QuantStudio Dx fluorescence quantitative PCR instrument; program: from 25° C. to 80° C., increasing the temperature at a rate of 0.05° C./s, and reading the fluorescence channel signal of the corresponding wavelength of SYPRO® orange every second.

[2] = molecular target: recombinant TEAD2 protein (218-447, Uniprot ID: Q15562) (Homo sapiens (Human), UniProt Q15562); assay: Thermal shift assay (protein melting point curve), TEAD2; assay type: binding; conditions: 10 μM TEAD protein, 50 μM test compound
Experimental: as §1, §2

[3] = molecular target: recombinant TEAD3 protein (218-435, Uniprot ID: Q99594) (Homo sapiens (Human), UniProt Q99594); assay: Thermal shift assay (protein melting point curve), TEAD3; assay type: binding; conditions: 10 μM TEAD protein, 50 μM test compound
Experimental: as §1, §2

[4] = molecular target: recombinant TEAD4 protein (217-434, Uniprot ID: Q15561) (Homo sapiens (Human), UniProt Q15561); assay: Thermal shift assay (protein melting point curve), TEAD4; assay type: binding; conditions: 10 μM TEAD protein, 50 μM test compound
Experimental: as §1, §2

[5] = molecular target: recombinant TEAD1 protein central pocket (Homo sapiens (Human), UniProt P28347); assay: Competitive thiol binding assay (CPM assay), TEAD1; conditions: 150 nM recombinant TEAD protein, 150 nM CPM
Experimental: (§3) Diluting the tested compound in gradient to 5 uL with buffer (25 mM HEPES, 150 mM NaCl, pH6.5), then adding 5 μL of the newly prepared 0.45 uM recombinant TEAD protein solution, and incubating at room temperature for 10 minutes. […] After shaking the plate at room temperature for 1 hour, measuring the fluorescence intensity (Ex/Em: 380/470 nm).

[6] = molecular target: recombinant TEAD4 protein central pocket (Homo sapiens (Human), UniProt Q15561); assay: Competitive thiol binding assay (CPM assay), TEAD4; conditions: 150 nM recombinant TEAD protein, 150 nM CPM
Experimental: as §3

[7] = In vitro liver microsome stability, mouse; assay type: in vitro ADME; conditions: for mouse half-life: mouse liver microsomes
Experimental: (§4) Testosterone is selected as the positive reference compound. The specific method is as follows:
(§5) Preparing 0.1MK3 PO4 (pH 7.4) buffer and 3×NADPH stock solution (6 mM, 5 mg/mL), and preheating in a 37° C. water bath; preparing spiking solution of tested compound and control compound: adding 5 μL compound stock solution (10 mM) to 95 μL acetonitrile; preparing 1.5 μM spiking solution in microsomes (0.75 mg/mL): add 1.5 μL spiking solution and 18.75 μL liver microsome solution (20 mg/mL) to 479.75 μL K3PO4 buffer; taking 30 μL spiking solution in microsomes and adding it to the multiwell plate, and incubating at 37° C. for 5 min; adding 15 μL of NADPH stock solution to each well, starting to react, and timing; adding 150 μL of acetonitrile solution containing IS at 0 min, 5 min, 15 min, 30 min, 45 min and 60 min respectively to terminate the reaction; after 10 min of oscillation, centrifuging the reaction at 6000 rpm for 15 min; taking 80 μL of supernatant from each well for LC/MS detection and calculating Ti/2.
(§6) Liver microsomes of mice, rats, dogs, and human used in the experiment are purchased from Xenotech.

[8] = In vitro liver microsome stability, human; assay type: in vitro ADME; conditions: for human half-life: human liver microsomes
Experimental: as §4, §5, §6

TEAD family proteins = assay: Thermal shift assay, summary over all TEAD subtypes; assay type: binding; conditions: summary of Table 1
Experimental: as §1, §2

Caco-2 cells = assay: Permeability test on Caco2 cells; assay type: in vitro ADME
Experimental: After resuscitation, the Caco-2 cells are transferred to a conventional culture dish and cultured in a high-glucose DMEM medium (containing 10% FBS) at 37° C. and 5% CO2 in an incubator. When the cells cover 80% to 95% of the bottom of the dish, they are digested with trypsin containing 0.25% EDTA to disperse them into a single cell suspension, and the cell concentration is determined using a cell counter, after that, the concentration of the cell suspension is adjusted to 2 to 2.5×10^5/mL with fresh culture medium and inoculated into a Transwell polycarbonate membrane 12-well plate, the fresh culture medium is replaced every two days in the first two weeks and once a day in the last week, the culture is continued for 19 to 21 days to obtain a fully differentiated single cell layer.

Sequence of recombinant TEAD3 protein (218-435, Uniprot ID: Q99594) (Q99594 218-435): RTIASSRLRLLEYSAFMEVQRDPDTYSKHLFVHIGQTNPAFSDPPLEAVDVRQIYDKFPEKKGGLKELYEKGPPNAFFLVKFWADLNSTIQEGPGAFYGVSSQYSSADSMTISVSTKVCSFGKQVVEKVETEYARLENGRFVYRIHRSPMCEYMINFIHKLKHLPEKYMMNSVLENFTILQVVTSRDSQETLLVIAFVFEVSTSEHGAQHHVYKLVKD
Sequence of recombinant TEAD4 protein (217-434, Uniprot ID: Q15561) (Q15561 217-434): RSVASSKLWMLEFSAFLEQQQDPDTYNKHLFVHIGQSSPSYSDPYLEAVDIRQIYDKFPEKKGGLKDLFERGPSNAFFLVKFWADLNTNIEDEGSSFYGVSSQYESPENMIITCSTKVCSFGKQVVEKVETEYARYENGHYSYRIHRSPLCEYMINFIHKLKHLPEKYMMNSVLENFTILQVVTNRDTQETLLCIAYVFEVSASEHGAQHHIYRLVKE
Sequence of recombinant TEAD4 protein central pocket (Q15561 whole entry): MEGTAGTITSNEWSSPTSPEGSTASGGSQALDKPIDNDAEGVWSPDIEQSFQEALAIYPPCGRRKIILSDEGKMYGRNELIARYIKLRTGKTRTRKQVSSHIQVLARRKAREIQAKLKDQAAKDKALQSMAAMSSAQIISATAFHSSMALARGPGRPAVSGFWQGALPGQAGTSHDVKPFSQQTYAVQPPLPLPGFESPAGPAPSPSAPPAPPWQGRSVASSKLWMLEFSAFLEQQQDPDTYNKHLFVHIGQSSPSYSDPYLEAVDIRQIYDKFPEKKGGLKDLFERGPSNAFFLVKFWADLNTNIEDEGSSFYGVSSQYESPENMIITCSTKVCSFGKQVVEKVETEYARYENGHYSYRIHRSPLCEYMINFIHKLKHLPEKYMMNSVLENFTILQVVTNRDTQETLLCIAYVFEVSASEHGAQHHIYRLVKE
Sequence of recombinant TEAD1 protein central pocket (P28347 whole entry): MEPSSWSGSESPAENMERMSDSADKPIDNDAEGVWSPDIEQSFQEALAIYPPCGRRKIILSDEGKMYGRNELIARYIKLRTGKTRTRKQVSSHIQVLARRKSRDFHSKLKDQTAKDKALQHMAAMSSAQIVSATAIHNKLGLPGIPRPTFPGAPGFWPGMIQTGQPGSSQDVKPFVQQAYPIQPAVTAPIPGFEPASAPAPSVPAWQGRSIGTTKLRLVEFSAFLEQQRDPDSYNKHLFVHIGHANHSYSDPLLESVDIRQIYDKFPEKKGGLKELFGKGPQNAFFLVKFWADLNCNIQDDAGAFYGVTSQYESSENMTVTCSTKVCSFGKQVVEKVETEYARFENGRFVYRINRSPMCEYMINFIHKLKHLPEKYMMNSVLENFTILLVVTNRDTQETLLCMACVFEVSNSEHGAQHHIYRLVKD
Sequence of recombinant TEAD2 protein (218-447, Uniprot ID: Q15562) (Q15562 218-447): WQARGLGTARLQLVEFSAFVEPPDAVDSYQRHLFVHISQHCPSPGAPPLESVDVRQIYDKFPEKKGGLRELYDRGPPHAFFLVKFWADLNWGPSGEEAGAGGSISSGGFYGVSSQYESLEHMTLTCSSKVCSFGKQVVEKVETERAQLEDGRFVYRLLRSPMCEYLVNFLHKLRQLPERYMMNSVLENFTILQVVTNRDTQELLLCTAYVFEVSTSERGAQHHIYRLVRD

Structure (SMILES) | Δ T m (TEAD1) [1] | Δ T m (TEAD2) [2] | Δ T m (TEAD3) [3] | Δ T m (TEAD4) [4] | other results
CP(C)(=O)c1ccc(Nc2ccc(C(F)(F)F)cc2)c(-c2nccc(OC3CCOC3)n2)c1 (stereo not drawn) [Compound 18] | ++++ | + | + | +++ | IC50 [5]: 160 nM; IC50 [6]: 210 nM
CP(C)(=O)c1ccc(Nc2ccc(C(F)(F)F)cc2)c(-c2nccc(N3CC[C@H](O)C3)n2)c1 [Compound 9] | +++ | ++ | + | +++ | mouse half-life [7]: 1.43 h; human half-life [8]: 0.488 h
CP(C)(=O)c1cc(-c2nccc(OC3COC3)n2)c(Nc2ccc(C(F)(F)F)cc2)s1 [Compound 24] | ++++ | ++ | + | ++++ | IC50 [5]: 180 nM; IC50 [6]: 290 nM
CP(C)(=O)c1ccc(Nc2ccc(C(F)(F)F)cc2)c(-c2nc(OC3COC3)cs2)c1 [Compound 7] | ++++ | ++ | ++ | ++++ | binding ability to each subtype of TEAD family proteins (TEAD family proteins): good binding abilities; IC50 [5]: 170 nM; IC50 [6]: 250 nM
CCP(=O)(CC)c1ccc(Nc2ccc(C(F)(F)F)cc2)c(-c2nccc(OC3COC3)n2)c1 [Compound 66] | ++++ | + | + | ++++ | IC50 [5]: 140 nM
CNC(=C[N+](=O)[O-])NCCSCc1ccc(CN(C)C)o1 [ranitidine] | – | – | – | – | Papp average value (Caco-2 cells; AP→BL, n = 2): 1.84 10^−6 cm/s; Papp (Caco-2 cells; AP→BL, single replicate): 1.99 10^−6 cm/s and 1.69 10^−6 cm/s; Receiving chamber concentration Area ratio/OD (Caco-2 cells; AP→BL, single replicate): 3.32 and 2.82; Penetration Type (Caco-2 cells; Caco2 cell model): Medium
CP(C)(=O)c1ccc(Nc2ccc(S(F)(F)(F)(F)F)cc2)c(-c2nccc(OC3COC3)n2)c1 [Compound 74] | ++++ | + | + | ++++ | IC50 [5]: 190 nM; IC50 [6]: 210 nM
Cn1cnc(-c2cc(P3(=O)CCNCC3)ccc2Nc2ccc(C(F)(F)F)cc2)c1 [Compound 1] | +++ | +++ | ++ | +++ | metabolic stability ([7]; mouse liver microsome environment): good metabolic stabilities; mouse half-life [7]: 1.56 h; metabolic stability ([8]; human liver microsome environment): good metabolic stabilities; human half-life [8]: 5.98 h
CP(C)(=O)c1ccc(NC2CCC(F)(F)CC2)c(-c2nccc(OC3COC3)n2)c1 [Compound 30] | +++ | + | + | ++ | IC50 [5]: 690 nM; IC50 [6]: 810 nM
CP(C)(=O)c1ccc(Nc2ccc(C(F)(F)F)cc2)c(-c2nnn(Cc3ccccn3)n2)c1 [Compound 3] | +++ | + | + | ++ | –
CP(C)(=O)c1ccc(NCC2CCC(C(F)(F)F)CC2)c(-c2ncccn2)c1 (stereo not drawn) [Compound 46] | +++ | ++ | ++ | ++ | –
CP(C)(=O)c1ccc(Nc2ccc(C(F)(F)F)cc2)c(-c2nnc(CO)o2)c1 [Compound 11] | +++ | ++ | + | ++ | –
CP(C)(=O)c1ccc(Nc2cccc(C(F)(F)F)c2)c(-c2nccc(OC3COC3)n2)c1 [Compound 13] | +++ | + | + | + | –
CP(C)(=O)c1ccc(OCc2ccc(C(F)(F)F)cc2)c(-c2nccc(OC3COC3)n2)c1 [Compound 20] | +++ | ++ | ++ | ++ | –
CP(C)(=O)c1ccc(NCc2ccc(C(F)(F)F)cc2)c(-n2cc(C3CCOCC3)cn2)c1 [Compound 58] | ++ | + | + | + | –
Cc1nnc(-c2cc(P(C)(C)=O)ccc2Nc2ccc(C(F)(F)F)cc2)o1 [Compound 69] | ++ | + | ++ | ++ | –
CP(C)(=O)c1ccc(NCc2ccc(C(F)(F)F)cc2)c(-c2cnn(C3COC3)c2)c1 [Compound 50] | ++ | ++ | ++ | ++ | –
CP(C)(=O)c1ccc(NCc2cccc(C(F)(F)F)c2)c(-c2nccc(OC3COC3)n2)c1 [Compound 52] | ++ | ++ | + | ++ | –
Cc1nnc(-c2cc(P(C)(C)=O)ccc2NCc2ccc(C(F)(F)F)cc2)o1 [Compound 4] | +++ | ++ | ++ | + | –
CP(C)(=O)c1ccc(NCc2ccc(C(F)(F)F)cc2)c(-c2cn(C3COC3)cn2)c1 [Compound 47] | +++ | + | ++ | ++ | –
CP(C)(=O)c1ccc(Nc2ccc(C(F)(F)F)cc2)c(-c2nccc(OC(F)F)n2)c1 [Compound 65] | +++ | ++ | + | ++ | –
